Source: patent US5434292A, “Phenylalkanoic acid derivatives, process for producing the same and process for separating optical isomers thereof” (Hisamitsu Pharmaceutical Co., Inc., priority 1994, dated 1995)
Like-named read-outs stand apart in the source and are kept apart here.

Tests used:
Assay type in all cases: in vivo, Wistar-strain male rats
[1] = tested on: Carrageenin-induced paw edema; assay: Carrageenin-induced paw edema experiment using rats; details: Rattus norvegicus, 3 h; for inhibition in vivo at 0.5 mg/kg / ED50 / inhibition in vivo at 0.2 mg/kg: oral; for inhibition in vivo at 0.5 mg/kg / inhibition in vivo at 0.2 mg/kg: three hours after induction, vs control; for ED50: edema inhibition three hours after induction
Experimental: Pharmacological Experiment 1 (Carrageenin-induced paw edema experiment using rats)
There were used groups each consisting of seven Wistar-strain male rats each weighing about 150 g as test animals (subjects). One hour later than said administration, 0.1 ml of 1%λ-carrageenin was hypodermically injected to the paw of right hind leg of each of the test animals to induce the reaction. Thereafter, each test animal so injected was measured for its paw volume with the lapse of time.
The experimental results were indicated in terms of edema inhibition rates and effective doses (ED50) found by comparing the edema rate of each test rat with that of each rat of the control group (to which no test compounds were orally administered) three hours after having induced the reaction.

[2] = tested on: threshold of pain of the paws; assay: Randall-Selitto method using rats (yeast-induced inflammatory pain); details: oral; for Inhibition rate: area under the curve of pain threshold vs control; for ED50: Rattus norvegicus, analgesic effect
Experimental: Pharmacological Experiment 2 (Randall-Selitto method using rats as subjects)
There were used groups each consisting of seven Wistar-strain male rats each weighing about 140 g. The rats were hypodermically injected with 0.1 ml of 20% yeast suspension at the paw of their right hind leg to induce inflammatory edema, and the threshold of pain of the paws was measured with the lapse of time in accordance with the Randall-Selitto method. Three hours after the reaction had been induced, the dose of the test compounds was orally administered to each rat as shown in the following Table 5.
In Table 5, the results were expressed in terms of inhibition rates and effective amounts (ED50) for the tested groups with respect to those of the control group (to which the compound was not orally administered) after the area under the curve had been measured subsequently to the administration.

[3] = tested on: adjuvant arthritis; assay: Adjuvant arthritis experiment using rats; details: oral; for ED50: Rattus norvegicus, 168 h, once a day for 7 days
Experimental: Pharmacological Experiment 4 (Adjuvant arthritis experiment using rats)
0.6 mg/0.1 ml of Mycobacterium butyricum suspended in liquid paraffin were subcutaneously administered to the root of the tall of each of Wistar-strain male rats each weighing about 200 g (for the compound of Example 2 and comparative compound 1) or 240 g (for the compound of Example 24 and comparative compounds 4 and 5). […] The test compounds were orally administered once a day for 7 days to the selected rats in the predetermined doses, respectively, as indicated in the following Table 7. The inhibitory effect on the adjuvant arthritis was investigated referring, as a guide to the investigation, to the inhibition effect on swelling of the hind paws of each of the tested rats. In each of the tested rats, the inhibition rate was calculated by comparing the swelling volume ratio of the tested rat determined by the following formula with that of each rat of the control group (to which no test compounds were orally administered).
Swelling volume ratio = {(paw volume measured
26 days (*a) after the subcutaneous administration) -
(original or normal paw volume)}/{(paw volume
measured 19 days (*b) after the subcutaneous
administration) - (original or normal paw volume)} × 100
*a: 24 days later, for the compound of Example 24 and comparative
*b: 17 days later, for the compound of Example 24 and comparative

[4] = tested on: Gastric mucous membrane; assay: Gastric mucous membrane trouble experiment using rats; details: oral, 3.0 mg/kg; fasted 18 hours; groups of eight rats
Experimental: (§1) Pharmacological Experiment 3 (Gastric mucous membrane trouble experiment using rats)
(§2) There were used groups each consisting of eight Wistar-strain male rats each weighing about 160 g as test animals (subjects). The test compounds were orally administered to the test animals in the predetermined doses, respectively, as indicated in the following Table 6 after their fasting for 18 hours. Thirty five hours later than said administration, the rats so administered were dissected to remove therefrom the stomachs each of which was then fixed, cut along the greater curvature thereof and visually observed to find whether ulcers were formed therein. Further, 50% gastric ulcer-inducing doses (UD50) were determined.

[5] = as above; details: rat, in vivo
Experimental: as §1, §2

[6] = read-out: Inhibition rate (edema inhibition rate)
[7] = 1.0 mg/kg once a day for 7 days

## CC(C(=O)O)c1ccc(C[C@H]2CCCC[C@@H]2O)c(F)c1 (relative stereo) [Example 31]
[1]; [6]
  inhibition in vivo at 0.5 mg/kg: 54%

## CC(C(=O)O)c1ccc(C[C@H]2CCC[C@@H]2O)c(F)c1 (relative stereo) [Example 46]
[1]; [6]
  inhibition in vivo at 0.5 mg/kg: 60.5%

## COc1ccc2c(c1)c(CC(=O)O)c(C)n2C(=O)c1ccc(Cl)cc1 [compound 4, Indomethacin, reference compound]
[2]; 5.0 mg/kg
  Inhibition rate: 76.3%
[1]; po, read-out: Inhibition rate (edema inhibition rate)
  inhibition in vivo at 5 mg/kg: 51.3%
[3]; [7]
  Inhibition rate (swelling of hind paws): 58.7%

## CC(C(=O)O)c1ccc(CC2CCCC2=O)cc1 (stereo not drawn) [compound 1, Loxoprofen, reference compound]
[4]
  Ulcer formation (incidence): 4/8
[5]; oral, fasted 18 hours, read-out: UD50 (50% gastric ulcer-inducing dose)
  TD50 at 35 h: 4.7 mg/kg
[2]
  ED50: 1.5 mg/kg
[2]; 1.0 mg/kg
  Inhibition rate: 49.7%
[1]; [6]
  inhibition in vivo at 0.5 mg/kg: 23.9%
[1]
  ED50: 1.5 mg/kg
[3]
  ED50: 8.1 mg/kg
[3]; [7]
  Inhibition rate (swelling of hind paws): 1.3%

## CC(C(=O)O)c1ccc(CC2CCCC2)c(Cl)c1 (stereo not drawn) [compound 3, 2(3-chloro-4-cyclopentylmethylphenyl)propionic acid, reference compound]
[2]; 1.0 mg/kg
  Inhibition rate: 18.4%
[1]; [6]
  inhibition in vivo at 0.5 mg/kg: 10.2%

## CC(C(=O)O)c1ccc(CC2CCCC2=O)c(Cl)c1 (stereo not drawn) [Example 3, 2-[3-chloro-4-(2-oxocyclopentane-1-ylmethyl)phenyl]propionic acid]
[2]; 0.3 mg/kg
  Inhibition rate: 44.7%
[2]; 1.0 mg/kg
  Inhibition rate: 69.3%
[1]; [6]
  inhibition in vivo at 0.2 mg/kg: 20.2%
  inhibition in vivo at 0.5 mg/kg: 48.5%

## CC(C(=O)O)c1ccc(C[C@@H]2CCC[C@H]2O)cc1 (relative stereo) [compound 6, 2[4-(trans-2-hydroxycyclopentane-1-ylmethyl)phenyl]propionic acid, reference compound]
[1]; [6]
  inhibition in vivo at 0.2 mg/kg: 22.5%
  inhibition in vivo at 0.5 mg/kg: 38.5%

## CC(C(=O)O)c1ccc(C[C@H]2CCC[C@H]2O)c(F)c1 (relative stereo) [Example 47]
[1]; [6]
  inhibition in vivo at 0.5 mg/kg: 45.6%

## CC(C(=O)O)c1ccc(CC2CCCCC2=O)c(F)c1 (stereo not drawn) [Example 10]
[1]; [6]
  inhibition in vivo at 0.5 mg/kg: 50.2%

## CC(C(=O)O)c1ccc(C[C@@H]2CCCC[C@H]2O)c(Cl)c1 (relative stereo) [Example 24, 2-[3-chloro-4-(trans-2-hydroxycyclohexane-1-ylmethyl)phenyl]propionic acid]
[1]; [6]
  inhibition in vivo at 0.2 mg/kg: 33.4%
  inhibition in vivo at 0.5 mg/kg: 47.1%
[3]; 0.1 mg/kg once a day for 7 days
  Inhibition rate (swelling of hind paws): 34.2%
[3]; 0.3 mg/kg once a day for 7 days
  Inhibition rate (swelling of hind paws): 49.9%
[3]; [7]
  Inhibition rate (swelling of hind paws): 65.9%

## CC(C(=O)O)c1ccc(C[C@H]2CCC[C@@H]2O)c(Cl)c1 (stereo partly drawn) [Example 44, 2-[3-chloro-4-(trans-(1R, 2S)-2-hydroxycyclopentane-1-ylmethyl)phenyl]propionic acid]
[1]; [6]
  inhibition in vivo at 0.2 mg/kg: 42.2%
  inhibition in vivo at 0.5 mg/kg: 65.5%

## CC(C(=O)O)c1ccc(CC2CCCCC2=O)cc1 (stereo not drawn) [compound 2, 2[4-(2-oxocyclohexane-1-ylmethyl)phenyl]propionic acid, reference compound]
[2]; 1.0 mg/kg
  Inhibition rate: 44.3%
[1]; [6]
  inhibition in vivo at 0.5 mg/kg: 27.1%

## CC(C(=O)O)c1ccc(CC2CCCCC2=O)c(Cl)c1 (stereo not drawn) [Example 2, 2-[3-chloro-4-(2-oxocyclohexane-1-ylmethyl)phenyl]propionic acid]
[4]
  Ulcer formation (incidence): 2/8
[5]; po
  TD50 at 35 h: 5.6 mg/kg
[2]
  ED50: 0.3 mg/kg
[2]; 0.3 mg/kg
  Inhibition rate: 54.3%
[2]; 1.0 mg/kg
  Inhibition rate: 75.1%
[1]; [6]
  inhibition in vivo at 0.2 mg/kg: 21.8%
  inhibition in vivo at 0.5 mg/kg: 49.5%
[1]
  ED50: 0.6 mg/kg
[3]
  ED50: 0.5 mg/kg
[3]; [7]
  Inhibition rate (swelling of hind paws): 62.1%

## CC(C(=O)O)c1ccc(C[C@H]2CCCC[C@@H]2O)c(Cl)c1 (stereo partly drawn) [Example 28, 2-[3-chloro-4-(trans-(1R, 2S)-2-hydroxycyclohexane-1-yl-methyl)phenyl]propionic acid]
[2]; 0.3 mg/kg
  Inhibition rate: 62.5%
[2]; 1.0 mg/kg
  Inhibition rate: 80.9%
[1]; [6]
  inhibition in vivo at 0.2 mg/kg: 38.3%
  inhibition in vivo at 0.5 mg/kg: 54.8%

## CC(C(=O)O)c1ccc(C[C@@H]2CCC[C@H]2O)c(Cl)c1 (relative stereo) [Example 40, 2-[3-chloro-4-(trans-2-hydroxycyclopentane-1-ylmethyl)phenyl] propionic acid]
[1]; [6]
  inhibition in vivo at 0.2 mg/kg: 34.5%
  inhibition in vivo at 0.5 mg/kg: 56.3%

## CC(C(=O)O)c1ccc(CC2CCCC2=O)c(F)c1 (stereo not drawn) [Example 6]
[4]
  Ulcer formation (incidence): 1/8
[1]; [6]
  inhibition in vivo at 0.5 mg/kg: 52.2%

## CC(C(=O)O)c1ccc(C[C@H]2CCCC[C@H]2O)c(F)c1 (relative stereo) [Example 32]
[1]; [6]
  inhibition in vivo at 0.5 mg/kg: 37.9%

## CC(C(=O)O)c1ccc(C[C@@H]2CCCC[C@H]2O)cc1 (relative stereo) [compound 5, 2[4-(trans-2-hydroxycyclohexane-1-ylmethyl)phenyl]propionic acid, reference compound]
[1]; [6]
  inhibition in vivo at 0.5 mg/kg: 33.7%
[3]; 3.0 mg/kg once a day for 7 days
  Inhibition rate (swelling of hind paws): 42.7%
[3]; 10.0 mg/kg once a day for 7 days
  Inhibition rate (swelling of hind paws): 56.4%
